Activity calls are given as the source filed them.
Key:
[1] = HEK-293T viability loss after treatment – luminescence, T-cell screen hits, cytotoxicity control for TCR NF-kB inhibitor project, dose response (AID 489026); assay type: functional, cell-based;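 note: cells exposed to compound about 14 hours before the viability readout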
Estrogen receptor beta [2] = target: T1, Estrogen receptor beta (Homo sapiens, UniProt Q92731); test: blockers of SRC-3 recruitment to ERβ – biochemical, ELISA, streptavidin-HRP readout, orthogonal assay, confirmation (AID 1060)
Estrogen receptor = target: T2, Estrogen receptor (Homo sapiens, UniProt P03372);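 note: potency for inhibiting coactivator peptide recruitment to the receptor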
T2 sequence (P03372 whole entry): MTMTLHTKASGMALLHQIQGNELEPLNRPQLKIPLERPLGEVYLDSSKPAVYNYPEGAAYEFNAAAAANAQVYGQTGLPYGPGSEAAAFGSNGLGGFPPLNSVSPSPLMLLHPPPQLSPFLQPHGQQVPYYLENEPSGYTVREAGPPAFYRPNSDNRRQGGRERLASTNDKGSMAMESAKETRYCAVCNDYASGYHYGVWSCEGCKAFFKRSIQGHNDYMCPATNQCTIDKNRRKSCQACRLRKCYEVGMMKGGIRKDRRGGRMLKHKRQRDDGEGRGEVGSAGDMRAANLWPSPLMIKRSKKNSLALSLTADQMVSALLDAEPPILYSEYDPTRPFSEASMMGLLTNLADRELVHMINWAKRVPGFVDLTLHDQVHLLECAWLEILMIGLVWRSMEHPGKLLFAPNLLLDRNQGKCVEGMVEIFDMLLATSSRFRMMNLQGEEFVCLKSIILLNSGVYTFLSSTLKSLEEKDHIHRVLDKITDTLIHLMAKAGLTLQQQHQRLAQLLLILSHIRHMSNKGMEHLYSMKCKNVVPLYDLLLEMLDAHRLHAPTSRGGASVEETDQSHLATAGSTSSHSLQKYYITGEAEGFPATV

Estrogen receptor beta [3] = target: T1, Estrogen receptor beta
Escherichia coli = test: microbe, parasite or virus in culture
[4] = HEK-293T cell viability reduction – luminescence, B-cell screen hits, cytotoxicity control for BCR NF-kB inhibitor project, dose response (AID 489021); assay type: functional, cell-based;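 note: HEK-293T cells carrying an NF-kB luciferase reporter; cells exposed to compound for about 14 hours before viability readout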
Coagulation factor XII = target: T3, Coagulation factor XII (Homo sapiens, UniProt P00748); assay type: functional;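 note: activated factor XIIa alpha cleaving a fluorogenic AMC peptide substrate; inhibitor potency from loss of enzyme activity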
T3 sequence (P00748 whole entry): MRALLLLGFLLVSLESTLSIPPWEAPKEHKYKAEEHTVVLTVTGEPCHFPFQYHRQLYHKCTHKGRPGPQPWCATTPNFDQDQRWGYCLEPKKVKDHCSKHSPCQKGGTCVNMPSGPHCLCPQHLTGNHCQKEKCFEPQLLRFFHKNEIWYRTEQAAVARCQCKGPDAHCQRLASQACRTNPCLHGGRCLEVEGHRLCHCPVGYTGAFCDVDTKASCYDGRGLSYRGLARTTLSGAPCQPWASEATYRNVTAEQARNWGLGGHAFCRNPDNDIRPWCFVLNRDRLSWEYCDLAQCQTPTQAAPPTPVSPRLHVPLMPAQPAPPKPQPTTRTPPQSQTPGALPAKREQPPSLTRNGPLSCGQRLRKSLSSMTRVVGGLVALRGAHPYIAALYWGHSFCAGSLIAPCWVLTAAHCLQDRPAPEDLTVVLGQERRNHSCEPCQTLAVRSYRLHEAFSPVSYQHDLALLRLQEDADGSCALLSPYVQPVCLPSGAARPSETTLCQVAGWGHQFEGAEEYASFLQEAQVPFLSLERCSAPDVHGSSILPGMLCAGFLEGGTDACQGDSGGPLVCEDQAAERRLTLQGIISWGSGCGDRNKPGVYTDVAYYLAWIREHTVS

Cytochrome P450 3A4 = Cytochrome P450 3A4 (Homo sapiens, UniProt P08684); conditions: Potency;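 note: confirmatory qHTS run detecting inhibitors and substrates of CYP3A4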
[5] = THP-1 cell cytotoxicity, dose response, cytotoxicity control for non-replicating M. tuberculosis project (AID 489025); assay type: functional
[6] = Vero E6 cell cytotoxicity, dose response, cytotoxicity control for non-replicating M. tuberculosis project, secondary assay (AID 492998); assay type: functional, VeroE6; conditions: Vero C1008
cells = assay type: functional
INS1 = test: INS-1E survival protection against cytokine death – cell-based, luminescence, retest, dose response (AID 449756); assay type: functional; conditions: Rattus norvegicus;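 note: cell death triggered by IL-1 beta plus TNF-alpha plus IFN-gamma mixture; protective hits raise ATP signal compared with cytokine alone wells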
[7] = target: T4, Microphthalmia-associated transcription factor (Homo sapiens, UniProt O75030); test: reducers of TRPM1 reporter luminescence, concentration series – cell-based, SK-MEL-5, cherry-picked, set 3, MITF inhibitor project, dose response (AID 493073); assay type: functional;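 note: SK-MEL-5 melanoma cells with luciferase driven by the MITF target TRPM1 promoter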
T4 sequence (O75030 whole entry): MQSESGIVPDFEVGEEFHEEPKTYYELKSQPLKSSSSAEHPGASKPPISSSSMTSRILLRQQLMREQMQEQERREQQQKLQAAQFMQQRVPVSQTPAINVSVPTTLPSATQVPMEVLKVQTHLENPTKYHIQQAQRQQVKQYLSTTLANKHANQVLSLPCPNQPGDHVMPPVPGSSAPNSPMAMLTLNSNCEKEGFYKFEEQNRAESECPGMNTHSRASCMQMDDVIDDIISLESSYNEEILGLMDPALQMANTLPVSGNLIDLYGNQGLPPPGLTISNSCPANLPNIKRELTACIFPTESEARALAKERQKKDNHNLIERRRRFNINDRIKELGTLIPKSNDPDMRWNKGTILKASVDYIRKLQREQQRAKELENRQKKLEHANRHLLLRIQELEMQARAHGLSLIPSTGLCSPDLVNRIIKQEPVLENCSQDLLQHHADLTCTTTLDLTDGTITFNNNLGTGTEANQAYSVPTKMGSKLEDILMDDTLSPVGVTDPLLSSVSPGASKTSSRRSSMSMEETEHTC

Nonstructural protein 1 = Nonstructural protein 1 (Influenza A virus, UniProt Q194T2); assay type: functional, Influenza A virus (A/California/07/2009(H1N1))
SUMO-activating enzyme = SUMO-activating enzyme (Homo sapiens, UniProt Q9UBT2); test: blockers of UBC9-mediated SUMO conjugation – biochemical, AlphaScreen, SUMOylation inhibitor project, confirmation (AID 2018); assay type: functional
[8] = target: Voltage-dependent T-type calcium channel subunit alpha-1H (Homo sapiens, UniProt O95180); assay type: functional;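 note: channel activity triggered by adding a high calcium stimulation buffer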
[9] = DRD fibroblast viability loss – cell-based, non-viral oncogenic, luminescence, dose response (AID 1934); assay type: functional; conditions: Homo sapiens
BJ [10] = test: BJ-TERT fibroblast viability loss – cell-based, RAS-independent, luminescence, dose response (AID 1933); assay type: functional; conditions: Homo sapiens
BJ [11] = test: cells; assay type: functional, cell-based; conditions: Homo sapiens
[12] = target: T5, Heat shock factor protein 1 (Mus musculus, UniProt P38532); test: decrease of HSF1-responsive luciferase luminescence – cell-based, NIH3T3, dose retest, confirmation (AID 2382); assay type: functional;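 note: NIH3T3 fibroblasts with HSF1-driven luciferase reporter stressed by proteasome inhibitor MG132; luminescence from HSF1-driven luciferase expression after 8 hours of MG132 stress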
T5 sequence (P38532 whole entry): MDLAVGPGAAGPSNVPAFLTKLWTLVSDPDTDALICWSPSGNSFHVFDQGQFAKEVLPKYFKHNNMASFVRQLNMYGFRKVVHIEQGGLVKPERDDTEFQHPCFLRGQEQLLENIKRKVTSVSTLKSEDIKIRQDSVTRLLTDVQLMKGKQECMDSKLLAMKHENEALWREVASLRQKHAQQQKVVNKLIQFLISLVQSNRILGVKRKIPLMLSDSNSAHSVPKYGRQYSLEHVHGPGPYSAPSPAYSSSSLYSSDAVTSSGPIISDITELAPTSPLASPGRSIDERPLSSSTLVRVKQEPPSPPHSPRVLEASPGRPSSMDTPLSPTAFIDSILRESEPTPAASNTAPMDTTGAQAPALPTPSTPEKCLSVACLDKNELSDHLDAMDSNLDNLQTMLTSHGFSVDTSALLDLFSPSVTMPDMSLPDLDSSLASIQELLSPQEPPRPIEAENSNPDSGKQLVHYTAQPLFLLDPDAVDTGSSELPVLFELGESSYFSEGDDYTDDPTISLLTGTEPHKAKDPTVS

[13] = target: T6, RNA-binding protein pos-1 (Caenorhabditis elegans, UniProt G5EF15); test: disruptors of C. elegans POS-1 RNA interaction – biochemical, fluorescence polarization, dose response (AID 1964);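 note: purified POS-1 fused to maltose binding protein made in E. coli; potency of compounds blocking POS-1 binding to fluorescent RNA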
T6 sequence (G5EF15 whole entry): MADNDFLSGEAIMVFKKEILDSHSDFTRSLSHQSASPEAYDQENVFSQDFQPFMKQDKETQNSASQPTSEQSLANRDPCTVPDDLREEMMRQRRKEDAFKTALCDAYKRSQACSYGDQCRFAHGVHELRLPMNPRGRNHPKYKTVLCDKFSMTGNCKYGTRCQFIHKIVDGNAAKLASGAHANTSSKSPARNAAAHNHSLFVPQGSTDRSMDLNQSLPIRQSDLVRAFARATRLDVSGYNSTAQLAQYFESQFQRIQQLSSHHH

[14] = target: T7, Zinc finger protein mex-5 (Caenorhabditis elegans, UniProt Q9XUB2); test: potency of MEX-5 RNA-binding blockers – biochemical, C. elegans, fluorescence polarization, dose response (AID 1960)
T7 sequence (Q9XUB2 whole entry): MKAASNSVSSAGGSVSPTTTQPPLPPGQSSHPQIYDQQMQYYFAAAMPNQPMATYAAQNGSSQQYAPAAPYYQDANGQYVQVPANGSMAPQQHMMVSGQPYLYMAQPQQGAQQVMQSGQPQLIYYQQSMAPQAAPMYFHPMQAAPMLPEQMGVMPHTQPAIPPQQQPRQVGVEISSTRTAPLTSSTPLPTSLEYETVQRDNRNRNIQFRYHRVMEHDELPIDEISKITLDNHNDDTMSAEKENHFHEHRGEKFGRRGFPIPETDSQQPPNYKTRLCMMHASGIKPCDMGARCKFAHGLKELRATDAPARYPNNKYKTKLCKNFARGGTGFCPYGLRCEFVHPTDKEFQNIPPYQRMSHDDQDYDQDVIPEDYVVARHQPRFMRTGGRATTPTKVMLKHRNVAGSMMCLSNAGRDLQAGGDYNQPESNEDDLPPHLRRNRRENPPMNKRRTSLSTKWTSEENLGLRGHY

T1 sequence (Q92731 whole entry): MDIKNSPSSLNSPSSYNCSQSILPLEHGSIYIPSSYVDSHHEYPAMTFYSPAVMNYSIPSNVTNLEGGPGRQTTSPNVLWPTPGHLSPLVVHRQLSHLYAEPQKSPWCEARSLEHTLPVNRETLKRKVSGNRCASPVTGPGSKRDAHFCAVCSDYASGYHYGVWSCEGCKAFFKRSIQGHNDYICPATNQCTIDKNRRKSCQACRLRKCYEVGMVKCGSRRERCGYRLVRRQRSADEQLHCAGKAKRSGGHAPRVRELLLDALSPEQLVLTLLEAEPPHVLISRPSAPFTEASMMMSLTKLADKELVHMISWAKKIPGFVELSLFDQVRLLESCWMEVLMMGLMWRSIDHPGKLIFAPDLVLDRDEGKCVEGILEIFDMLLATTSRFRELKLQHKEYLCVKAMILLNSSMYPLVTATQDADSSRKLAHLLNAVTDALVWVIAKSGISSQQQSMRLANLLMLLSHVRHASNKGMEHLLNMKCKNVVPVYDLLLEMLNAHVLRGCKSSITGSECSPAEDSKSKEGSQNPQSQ
Chain of Cytochrome P450 3A4 (P08684 whole entry): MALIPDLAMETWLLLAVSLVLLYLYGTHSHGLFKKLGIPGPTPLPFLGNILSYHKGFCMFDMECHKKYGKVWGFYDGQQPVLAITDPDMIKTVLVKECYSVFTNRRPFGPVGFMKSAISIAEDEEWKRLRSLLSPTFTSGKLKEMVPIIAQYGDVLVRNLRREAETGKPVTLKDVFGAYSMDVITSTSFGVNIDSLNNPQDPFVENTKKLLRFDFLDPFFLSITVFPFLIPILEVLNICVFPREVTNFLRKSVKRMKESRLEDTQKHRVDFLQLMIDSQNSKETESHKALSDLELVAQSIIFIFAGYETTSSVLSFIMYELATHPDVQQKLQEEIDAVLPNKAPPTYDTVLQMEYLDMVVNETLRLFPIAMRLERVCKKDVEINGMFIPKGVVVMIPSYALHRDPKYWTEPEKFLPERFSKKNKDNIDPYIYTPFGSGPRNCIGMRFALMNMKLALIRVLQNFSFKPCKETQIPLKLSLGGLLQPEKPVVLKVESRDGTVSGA
Chain of Nonstructural protein 1 (Q194T2 whole entry): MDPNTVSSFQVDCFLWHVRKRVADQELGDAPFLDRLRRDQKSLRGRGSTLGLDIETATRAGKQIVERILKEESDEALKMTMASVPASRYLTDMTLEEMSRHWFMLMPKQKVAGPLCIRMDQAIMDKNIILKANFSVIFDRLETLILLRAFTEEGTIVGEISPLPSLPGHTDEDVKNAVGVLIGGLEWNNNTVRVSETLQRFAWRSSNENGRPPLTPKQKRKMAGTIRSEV
Chain of Voltage-dependent T-type calcium channel subunit alpha-1H (O95180 whole entry): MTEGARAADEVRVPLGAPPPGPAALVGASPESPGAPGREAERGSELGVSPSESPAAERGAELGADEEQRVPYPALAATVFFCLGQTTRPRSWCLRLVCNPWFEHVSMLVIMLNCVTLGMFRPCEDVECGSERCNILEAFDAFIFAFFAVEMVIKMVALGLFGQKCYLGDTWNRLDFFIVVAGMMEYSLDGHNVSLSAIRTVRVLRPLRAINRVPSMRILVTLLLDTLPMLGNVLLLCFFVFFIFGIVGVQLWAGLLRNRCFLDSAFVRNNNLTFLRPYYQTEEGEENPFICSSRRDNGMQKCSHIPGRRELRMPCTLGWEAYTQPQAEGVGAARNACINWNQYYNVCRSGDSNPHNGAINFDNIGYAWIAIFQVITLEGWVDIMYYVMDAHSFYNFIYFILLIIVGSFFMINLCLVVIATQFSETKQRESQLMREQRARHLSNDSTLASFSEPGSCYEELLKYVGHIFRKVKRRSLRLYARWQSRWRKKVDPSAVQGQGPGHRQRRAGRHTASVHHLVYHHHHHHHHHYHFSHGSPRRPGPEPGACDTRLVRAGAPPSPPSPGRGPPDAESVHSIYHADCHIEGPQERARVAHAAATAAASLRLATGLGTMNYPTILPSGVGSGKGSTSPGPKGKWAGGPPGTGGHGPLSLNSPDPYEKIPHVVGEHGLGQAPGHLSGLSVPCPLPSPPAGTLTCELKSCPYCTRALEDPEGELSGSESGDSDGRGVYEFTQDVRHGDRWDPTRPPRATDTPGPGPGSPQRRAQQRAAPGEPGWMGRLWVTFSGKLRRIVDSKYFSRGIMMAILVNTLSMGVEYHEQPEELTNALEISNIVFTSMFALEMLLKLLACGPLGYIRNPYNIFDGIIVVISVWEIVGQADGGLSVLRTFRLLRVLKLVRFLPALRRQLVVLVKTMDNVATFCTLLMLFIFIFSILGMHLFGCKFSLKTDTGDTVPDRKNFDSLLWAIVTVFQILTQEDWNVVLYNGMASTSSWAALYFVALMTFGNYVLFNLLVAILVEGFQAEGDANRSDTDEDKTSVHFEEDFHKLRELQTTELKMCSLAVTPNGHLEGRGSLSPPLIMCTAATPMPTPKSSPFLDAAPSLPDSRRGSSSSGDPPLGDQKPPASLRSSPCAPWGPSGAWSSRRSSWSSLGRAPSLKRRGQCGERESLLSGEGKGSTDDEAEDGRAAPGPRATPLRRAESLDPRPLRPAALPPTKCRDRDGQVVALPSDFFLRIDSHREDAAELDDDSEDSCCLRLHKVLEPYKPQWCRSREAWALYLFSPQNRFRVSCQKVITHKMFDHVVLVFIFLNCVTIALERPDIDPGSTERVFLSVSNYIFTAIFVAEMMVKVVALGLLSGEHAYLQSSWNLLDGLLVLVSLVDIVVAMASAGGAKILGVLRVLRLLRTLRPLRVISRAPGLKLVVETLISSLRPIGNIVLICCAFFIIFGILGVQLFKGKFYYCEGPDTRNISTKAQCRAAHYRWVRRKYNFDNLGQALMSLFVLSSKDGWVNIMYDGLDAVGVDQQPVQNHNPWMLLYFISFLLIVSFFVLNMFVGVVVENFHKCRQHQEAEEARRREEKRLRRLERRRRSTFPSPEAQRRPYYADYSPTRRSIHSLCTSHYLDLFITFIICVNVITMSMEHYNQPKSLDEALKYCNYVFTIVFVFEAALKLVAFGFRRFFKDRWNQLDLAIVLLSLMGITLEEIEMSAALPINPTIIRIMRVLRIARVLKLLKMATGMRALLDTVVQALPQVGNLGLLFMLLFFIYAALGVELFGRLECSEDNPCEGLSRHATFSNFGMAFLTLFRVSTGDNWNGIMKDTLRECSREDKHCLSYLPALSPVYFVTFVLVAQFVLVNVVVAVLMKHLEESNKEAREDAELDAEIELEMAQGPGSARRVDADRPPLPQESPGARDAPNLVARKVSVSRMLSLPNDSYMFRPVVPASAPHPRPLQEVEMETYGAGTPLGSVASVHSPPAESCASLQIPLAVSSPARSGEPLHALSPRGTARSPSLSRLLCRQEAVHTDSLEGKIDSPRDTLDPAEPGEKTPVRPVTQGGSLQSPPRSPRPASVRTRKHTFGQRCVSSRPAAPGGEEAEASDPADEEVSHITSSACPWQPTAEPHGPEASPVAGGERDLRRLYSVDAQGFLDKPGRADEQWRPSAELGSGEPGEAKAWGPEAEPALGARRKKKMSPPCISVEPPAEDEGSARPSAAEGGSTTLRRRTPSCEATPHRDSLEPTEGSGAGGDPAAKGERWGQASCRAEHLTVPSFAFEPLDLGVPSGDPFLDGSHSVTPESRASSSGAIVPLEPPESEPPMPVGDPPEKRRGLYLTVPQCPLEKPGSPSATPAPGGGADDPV
Chain of SUMO-activating enzyme (Q9UBE0 whole entry): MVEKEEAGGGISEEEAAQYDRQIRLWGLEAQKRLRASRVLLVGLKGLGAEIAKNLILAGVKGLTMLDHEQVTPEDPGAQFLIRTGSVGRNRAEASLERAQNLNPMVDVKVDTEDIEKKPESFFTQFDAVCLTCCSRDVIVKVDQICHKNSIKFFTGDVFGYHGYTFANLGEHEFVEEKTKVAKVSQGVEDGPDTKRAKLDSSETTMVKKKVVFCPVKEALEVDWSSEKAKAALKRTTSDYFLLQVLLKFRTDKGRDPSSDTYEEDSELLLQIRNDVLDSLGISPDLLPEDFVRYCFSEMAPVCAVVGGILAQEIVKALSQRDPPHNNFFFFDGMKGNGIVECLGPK
Chain of SUMO-activating enzyme (Q9UBT2 whole entry): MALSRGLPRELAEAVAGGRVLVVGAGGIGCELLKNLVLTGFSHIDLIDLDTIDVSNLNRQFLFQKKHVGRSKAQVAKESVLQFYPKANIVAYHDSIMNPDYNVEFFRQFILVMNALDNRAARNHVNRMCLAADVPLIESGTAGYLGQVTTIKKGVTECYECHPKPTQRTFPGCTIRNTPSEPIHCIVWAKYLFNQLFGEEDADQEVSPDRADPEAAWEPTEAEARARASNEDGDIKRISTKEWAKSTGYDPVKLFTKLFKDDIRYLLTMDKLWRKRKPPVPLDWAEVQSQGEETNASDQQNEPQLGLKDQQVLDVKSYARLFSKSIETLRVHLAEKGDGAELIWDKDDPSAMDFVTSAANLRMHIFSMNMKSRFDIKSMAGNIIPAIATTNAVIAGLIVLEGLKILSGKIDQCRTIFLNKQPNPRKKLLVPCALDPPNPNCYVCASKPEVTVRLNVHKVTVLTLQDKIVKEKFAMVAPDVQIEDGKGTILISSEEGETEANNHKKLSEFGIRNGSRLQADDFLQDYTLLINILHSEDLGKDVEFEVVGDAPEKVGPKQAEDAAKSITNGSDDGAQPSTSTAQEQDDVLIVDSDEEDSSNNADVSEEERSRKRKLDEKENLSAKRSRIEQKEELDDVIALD

Cc1noc(C)c1COc1ccc(CC(=O)NCc2ccccc2)cc1
IC50 [1]: > 80 µM (inactive)

O=C(c1cccc(F)c1)N1CCN(C(=O)c2cc3ncc(Br)cn3n2)CC1
IC50 (Estrogen receptor beta [2]): 1.16 µM (not active) | IC50 (Estrogen receptor): 33.4 µM (not active) | IC50 (Estrogen receptor beta [3]): 11.5 µM (active)

CN(CC(=O)NCCN1CCOCC1)S(=O)(=O)c1ccc(Cl)cc1
AC50 (Escherichia coli): 23.2 µM (active)

CCc1ccc(/C=C2\SC(=S)N(CCC(=O)Nc3cc(C)on3)C2=O)cc1
IC50 [4]: > 80 µM (inactive)

CCOCC(=O)Nc1ccc(S(=O)(=O)Nc2ncccn2)cc1
IC50 (Coagulation factor XII): > 50 µM (inactive)

COC(=O)c1cccc(C23CC4(C2)[C@H](CN(Cc2ccc(-c5ccccc5)cc2)[C@@H]4c2ccccc2)C3c2ccccc2)c1 (stereo not given in full)
AC50 (Cytochrome P450 3A4): 15.8 µM (inconclusive)

COc1ccc(Br)cc1CNC(=O)C1CCCN(c2nc3ccccc3o2)C1 (stereo not given)
IC50 (Estrogen receptor): > 50 µM (not active)

O=C(Nc1ccsc1C(=O)NC1CCCCC1)c1ccccc1
AC50 (Escherichia coli): 26 µM (active)

COc1ccc2c(=O)c(-c3ccccc3)coc2c1
AC50 (Cytochrome P450 3A4): 39.8 µM (inconclusive)

CC1(C)Oc2ccc(C(=O)NC3CCCC3)cc2N(CC(=O)NC2CCCC2)C1=O
IC50 (Coagulation factor XII): > 50 µM (inactive)

O=C(Nc1ccc(Br)cc1)C1CC(O)CN1C(=O)Oc1ccccc1 (stereo not given)
AC50 (Escherichia coli): 42.7 µM (active)

CC1CCCN(C(=O)C2CCCN(S(=O)(=O)c3cccc4nsnc34)C2)C1 (stereo not given)
IC50 (Coagulation factor XII): > 50 µM (inactive)

O=C(Nc1nc(-c2ccccn2)cs1)c1ccc([N+](=O)[O-])o1
CC50 [5]: 9.27 µM (active) | CC50 [6]: 4.61 µM (active) | IC50 (cells): 4.38 µM (active) | AC50 (INS1): 2.11 µM (active) | AC50 [7]: 10.8 µM (active) | IC50 (Nonstructural protein 1): 11.7 µM (active)

COCCNC(=O)CSCc1nc(-c2ccc(SC)cc2)oc1C
IC50 [4]: > 80 µM (inactive)

O=C(Oc1ccc2ccc(=O)oc2c1)c1cccs1
IC50 (Coagulation factor XII): 7.8 µM (active)

Cc1ccc2c(c1)COc1c3ccc(C(=O)O)cc3nn1-2
IC50 [1]: > 80 µM (inactive) | AC50 [7]: 2.23 µM (active)

CC(=O)N1CC=CC1(CC(C)C)C(=O)NCC1CC1 (stereo not given)
AC50 (Cytochrome P450 3A4): 31.6 µM (inconclusive)

O=C(CCCN1C(=O)/C(=C/c2ccccc2Cl)SC1=S)Nc1ccccn1
IC50 [4]: > 80 µM (inactive)

Cc1ccc(NC(=O)Cn2c(=O)oc3cc(S(=O)(=O)N4CCC(C)CC4)ccc32)cc1C
IC50 (SUMO-activating enzyme): 24.4 µM (active) | EC50 [8]: 5.17 µM (active) | AC50 (INS1): 8.95 µM (active)

Cc1cc(C(=O)N2CC=C(c3ccccc3)CC2)c2ccccc2n1
EC50 [9]: 0.653 µM (active) | EC50 (BJ [10]): 1.32 µM (active) | EC50 (BJ [11]): 86.7 µM (active) | IC50 [1]: > 80 µM (inactive)

CCN1CCc2nc(NC(=O)Cc3ccc4c(c3)OCCO4)sc2C1
IC50 (Estrogen receptor): 28.8 µM (active)

Cc1ccc(N)c(N)c1
AC50 (Cytochrome P450 3A4): 25.1 µM (inconclusive)

NC1=C(c2nc3ccccc3[nH]2)C(=O)CN1c1ccc(CC(=O)O)cc1
EC50 [12]: > 195 µM (not active) | IC50 (Estrogen receptor beta [2]): < 0.023 µM (not active) | EC50 [13]: 5.25 µM (inconclusive) | IC50 (Estrogen receptor beta [3]): 25.9 µM (active) | EC50 [14]: 1.59 µM (active)

— ChEMBL document CHEMBL1201862, “PubChem BioAssay data set” (2004)
